Columns and labels:
human Gal-1 (hGal-1) = assay: Competitive binding assay: binding of biotinylated hGal-1 to microplate-adsorbed asialofetuin (ASF); conditions: Activities on hGal-1; mean values of several measurements
Summary of the method: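 For hGal-1, a variant with all six cysteines replaced by serines is preferred. Either galectin, biotinylated at 300-1000 ng/mL, competes with compound for microplate-bound ASF over 3 h at 4° C; peroxidase/ABTS detection gives IC50, averaged.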

human Gal-3 (hGal-3) = human Gal-3 (hGal-3) (Homo sapiens (Human), UniProt P17931); assay: Competitive binding assay: binding of biotinylated hGal-3 to microplate-adsorbed asialofetuin (ASF); conditions: Activity on hGal-3; mean values of several measurements
Summary of the method: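 Compounds in DMSO dilution series competed with 300-1000 ng/mL biotinylated hGal-3 for asialofetuin adsorbed on the plate (3 h, 4° C). Streptavidin-peroxidase at 80 ng/mL (1 h, 4° C) with ABTS gave a spectrophotometric read-out, and IC50 was reported as the mean of repeat runs.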

Sequence of human Gal-1 (hGal-1) (P09382 2-135 limits assumed): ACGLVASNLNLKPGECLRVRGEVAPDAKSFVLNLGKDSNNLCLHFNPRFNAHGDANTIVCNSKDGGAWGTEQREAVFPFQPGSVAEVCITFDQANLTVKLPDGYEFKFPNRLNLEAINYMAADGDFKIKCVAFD
Sequence of human Gal-3 (hGal-3) (P17931 whole entry): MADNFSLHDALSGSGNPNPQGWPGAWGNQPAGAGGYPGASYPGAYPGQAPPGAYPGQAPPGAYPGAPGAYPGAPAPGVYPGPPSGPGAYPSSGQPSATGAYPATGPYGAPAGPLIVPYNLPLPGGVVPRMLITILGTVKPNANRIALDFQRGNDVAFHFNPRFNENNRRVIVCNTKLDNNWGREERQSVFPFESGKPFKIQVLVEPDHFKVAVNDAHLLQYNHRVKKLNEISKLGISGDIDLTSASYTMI

| SMILES | IC50 (human Gal-1 (hGal-1)) [nM] | IC50 (human Gal-3 (hGal-3)) [nM] |
| --- | --- | --- |
| CO[C@@H]1[C@@H](n2cc(-c3ccc(C)c(F)c3F)nn2)[C@@H](O)[C@@H](CO)O[C@@H]1Cc1cc(C2CCN(C(C)=O)CC2)on1 [Ex 1.168] | 930 | 29 |
| CO[C@@H]1[C@@H](n2cc(-c3cc(F)cc(Cl)c3)nn2)[C@@H](O)[C@@H](CO)O[C@@H]1Cc1cc(C2CCN(C(C)=O)CC2)on1 [Ex 1.169] | 470 | 154 |
| CO[C@@H]1[C@@H](n2cc(-c3cc(F)c(C)c(F)c3)nn2)[C@@H](O)[C@@H](CO)O[C@@H]1Cc1cc(C2CCCCC2)on1 [Ex 1.170] | > 100000 | 400 |
| CO[C@@H]1[C@@H](n2cc(-c3ccc(C)c(F)c3)nn2)[C@@H](O)[C@@H](CO)O[C@@H]1Cc1cc(C2CCCCC2)on1 [Ex 1.171] | 13200 | 440 |
| CO[C@@H]1[C@@H](n2cc(-c3ccc(Cl)c(F)c3F)nn2)[C@@H](O)[C@@H](CO)O[C@@H]1Cc1cc(C2CCCCC2)on1 [Ex 1.172] | 57000 | 260 |
| CO[C@@H]1[C@@H](n2cc(-c3ccc(Br)c(F)c3F)nn2)[C@@H](O)[C@@H](CO)O[C@@H]1Cc1cc(C2CCCCC2)on1 [Ex 1.173] | 47800 | 440 |
| CO[C@@H]1[C@@H](n2cc(-c3ccc(Cl)c(F)c3)nn2)[C@@H](O)[C@@H](CO)O[C@@H]1Cc1cc(C2CCCCC2)on1 [Ex 1.174] | 18800 | 900 |
| CO[C@@H]1[C@@H](n2cc(-c3ccc(F)c(F)c3F)nn2)[C@@H](O)[C@@H](CO)O[C@@H]1Cc1cc(C2CCCCC2)on1 [Ex 1.175] | 4760 | 310 |
| CO[C@@H]1[C@@H](n2cc(-c3cc(F)c(Cl)c(F)c3)nn2)[C@@H](O)[C@@H](CO)O[C@@H]1Cc1cc(C2CCCCC2)on1 [Ex 1.176] | > 100000 | 870 |
| CO[C@@H]1[C@@H](n2cc(-c3ccc(C)c(F)c3F)nn2)[C@@H](O)[C@@H](CO)O[C@@H]1Cc1cc(C2CCCCC2)on1 [Ex 1.177] | 64800 | 180 |
| CO[C@@H]1[C@@H](n2cc(-c3cc(F)cc(Cl)c3)nn2)[C@@H](O)[C@@H](CO)O[C@@H]1Cc1cc(C2CCCCC2)on1 [Ex 1.178] | 10300 | 980 |
| CO[C@@H]1[C@@H](n2cc(-c3cc(F)c(C)c(F)c3)nn2)[C@@H](O)[C@@H](CO)O[C@@H]1Cc1cc(C2CCOCC2)on1 [Ex 1.179] | 11000 | 150 |
| CO[C@@H]1[C@@H](n2cc(-c3ccc(C)c(F)c3)nn2)[C@@H](O)[C@@H](CO)O[C@@H]1Cc1cc(C2CCOCC2)on1 [Ex 1.180] | 4930 | 180 |
| CO[C@@H]1[C@@H](n2cc(-c3ccc(Cl)c(F)c3F)nn2)[C@@H](O)[C@@H](CO)O[C@@H]1Cc1cc(C2CCOCC2)on1 [Ex 1.181] | 8040 | 56 |
| CO[C@@H]1[C@@H](n2cc(-c3ccc(Br)c(F)c3F)nn2)[C@@H](O)[C@@H](CO)O[C@@H]1Cc1cc(C2CCOCC2)on1 [Ex 1.182] | 4730 | 82 |
| CO[C@@H]1[C@@H](n2cc(-c3ccc(Cl)c(F)c3)nn2)[C@@H](O)[C@@H](CO)O[C@@H]1Cc1cc(C2CCOCC2)on1 [Ex 1.183] | 5290 | 280 |
| CO[C@@H]1[C@@H](n2cc(-c3ccc(F)c(F)c3F)nn2)[C@@H](O)[C@@H](CO)O[C@@H]1Cc1cc(C2CCOCC2)on1 [Ex 1.184] | 1180 | 130 |
| CO[C@@H]1[C@@H](n2cc(-c3cc(F)c(Cl)c(F)c3)nn2)[C@@H](O)[C@@H](CO)O[C@@H]1Cc1cc(C2CCOCC2)on1 [Ex 1.185] | 1450 | 190 |
| CO[C@@H]1[C@@H](n2cc(-c3ccc(C)c(F)c3F)nn2)[C@@H](O)[C@@H](CO)O[C@@H]1Cc1cc(C2CCOCC2)on1 [Ex 1.186] | 6200 | 85 |
| CO[C@@H]1[C@@H](n2cc(-c3cc(F)cc(Cl)c3)nn2)[C@@H](O)[C@@H](CO)O[C@@H]1Cc1cc(C2CCOCC2)on1 [Ex 1.187] | 5980 | 450 |
| CO[C@@H]1[C@@H](n2cc(-c3cc(F)c(C)c(F)c3)nn2)[C@@H](O)[C@@H](CO)O[C@@H]1Cc1cc(C(C)(C)C)on1 [Ex 1.188] | 7620 | 180 |
| CO[C@@H]1[C@@H](n2cc(-c3ccc(C)c(F)c3)nn2)[C@@H](O)[C@@H](CO)O[C@@H]1Cc1cc(C(C)(C)C)on1 [Ex 1.189] | 5430 | 170 |
| CO[C@@H]1[C@@H](n2cc(-c3ccc(Cl)c(F)c3F)nn2)[C@@H](O)[C@@H](CO)O[C@@H]1Cc1cc(C(C)(C)C)on1 [Ex 1.190] | 4610 | 71 |
| CO[C@@H]1[C@@H](n2cc(-c3ccc(Br)c(F)c3F)nn2)[C@@H](O)[C@@H](CO)O[C@@H]1Cc1cc(C(C)(C)C)on1 [Ex 1.191] | 3650 | 150 |

| SMILES | IC50 (human Gal-1 (hGal-1)) [nM] | IC50 (human Gal-3 (hGal-3)) [nM] |
| --- | --- | --- |
| CO[C@@H]1[C@@H](n2cc(-c3ccc(Cl)c(F)c3)nn2)[C@@H](O)[C@@H](CO)O[C@@H]1Cc1cc(C(C)(C)C)on1 [Ex 1.192] | 1880 | 200 |
| CO[C@@H]1[C@@H](n2cc(-c3ccc(F)c(F)c3F)nn2)[C@@H](O)[C@@H](CO)O[C@@H]1Cc1cc(C(C)(C)C)on1 [Ex 1.193] | 1250 | 120 |
| CO[C@@H]1[C@@H](n2cc(-c3cc(F)c(Cl)c(F)c3)nn2)[C@@H](O)[C@@H](CO)O[C@@H]1Cc1cc(C(C)(C)C)on1 [Ex 1.194] | 3510 | 180 |
| CO[C@@H]1[C@@H](n2cc(-c3ccc(C)c(F)c3F)nn2)[C@@H](O)[C@@H](CO)O[C@@H]1Cc1cc(C(C)(C)C)on1 [Ex 1.195] | 3330 | 60 |
| CO[C@@H]1[C@@H](n2cc(-c3cc(F)cc(Cl)c3)nn2)[C@@H](O)[C@@H](CO)O[C@@H]1Cc1cc(C(C)(C)C)on1 [Ex 1.196] | 2430 | 400 |
| CO[C@@H]1[C@@H](n2cc(-c3cc(F)c(F)c(F)c3)nn2)[C@@H](O)[C@@H](CO)O[C@@H]1Cc1cc(C2CCN(S(=O)(=NC(C)C)C(C)C)CC2)on1 (stereo partly drawn) [Ex 1.197] | 2190 | 110 |
| CCOC(=O)N1CCC(c2cc(C[C@H]3O[C@H](CO)[C@H](O)[C@H](n4cc(-c5ccc(Br)c(F)c5F)nn4)[C@H]3OC)no2)CC1 [Ex 1.198] | 3590 | 47 |
| CCOC(=O)N1CCC(c2cc(C[C@H]3O[C@H](CO)[C@H](O)[C@H](n4cc(-c5cc(F)c(Cl)c(F)c5)nn4)[C@H]3OC)no2)CC1 [Ex 1.199] | 5990 | 52 |
| CCOC(=O)N1CCC(c2cc(C[C@H]3O[C@H](CO)[C@H](O)[C@H](n4cc(-c5cc(F)cc(Cl)c5)nn4)[C@H]3OC)no2)CC1 [Ex 1.200] | 1510 | 120 |
| CCOC(=O)N1CCC(c2cc(C[C@H]3O[C@H](CO)[C@H](O)[C@H](n4cc(-c5ccc(C)c(F)c5)nn4)[C@H]3OC)no2)CC1 [Ex 1.201] | 2940 | 67 |
| CCOC(=O)N1CCC(c2cc(C[C@H]3O[C@H](CO)[C@H](O)[C@H](n4cc(-c5cc(F)c(C)c(F)c5)nn4)[C@H]3OC)no2)CC1 [Ex 1.202] | 3950 | 33 |
| CCOC(=O)N1CCC(c2cc(C[C@H]3O[C@H](CO)[C@H](O)[C@H](n4cc(-c5ccc(Cl)c(F)c5F)nn4)[C@H]3OC)no2)CC1 [Ex 1.203] | 1780 | 26 |
| CC(=O)O[C@@H]1[C@@H](n2cc(-c3ccc(C)c(F)c3F)nn2)[C@@H](O)[C@@H](CO)O[C@@H]1Cc1cc(C(C)(C)C)on1 [Ex 1.204] | 17300 | 41 |
| Cc1ccc(-c2cn([C@H]3[C@@H](O)[C@@H](CO)O[C@H](Cc4cc(C(C)(C)C)on4)[C@@H]3O)nn2)c(F)c1F [Ex 1.205] | 9010 | 41 |
| CO[C@@H]1[C@@H](n2cc(-c3cc(F)c(F)c(F)c3)nn2)[C@@H](O)[C@@H](CO)O[C@@H]1Cc1cc(C(C)(C)C)no1 [Ex 1.206] | 1340 | 83 |
| CO[C@@H]1[C@@H](n2cc(-c3cc(F)c(F)c(F)c3)nn2)[C@@H](O)[C@@H](CO)O[C@@H]1Cc1cc(C(C)(C)CO)no1 [Ex 1.207] | 1160 | 110 |
| CCOC(=O)CC(C)(C)c1cc(C[C@H]2O[C@H](CO)[C@H](O)[C@H](n3cc(-c4cc(F)c(F)c(F)c4)nn3)[C@H]2OC)on1 [Ex 1.208] | 1640 | 130 |
| CO[C@@H]1[C@@H](n2cc(-c3cc(F)c(F)c(F)c3)nn2)[C@@H](O)[C@@H](CO)O[C@@H]1Cc1cc(C2(OC)CCCC2)no1 [Ex 1.209] | 3660 | 260 |
| CO[C@@H]1[C@@H](n2cc(-c3cc(F)c(F)c(F)c3)nn2)[C@@H](O)[C@@H](CO)O[C@@H]1Cc1cc(C2(OC)CCCCC2)no1 [Ex 1.210] | 2730 | 290 |
| CO[C@@H]1[C@@H](n2cc(-c3cc(F)c(F)c(F)c3)nn2)[C@@H](O)[C@@H](CO)O[C@@H]1Cc1cc(C2(C)COC2)no1 [Ex 1.211] | 450 | 94 |
| CCC1(c2cc(C[C@H]3O[C@H](CO)[C@H](O)[C@H](n4cc(-c5cc(F)c(F)c(F)c5)nn4)[C@H]3OC)on2)COC1 [Ex 1.212] | 1600 | 160 |
| CO[C@@H]1[C@@H](n2cc(-c3cc(F)c(F)c(F)c3)nn2)[C@@H](O)[C@@H](CO)O[C@@H]1Cc1cc(C2(F)CC2)no1 [Ex 1.213] | 1550 | 160 |
| CO[C@@H]1[C@@H](n2cc(-c3cc(F)c(F)c(F)c3)nn2)[C@@H](O)[C@@H](CO)O[C@@H]1Cc1cc(C2(C(F)F)CC2)no1 [Ex 1.214] | 920 | 130 |
| CO[C@@H]1[C@@H](n2cc(-c3cc(F)c(F)c(F)c3)nn2)[C@@H](O)[C@@H](CO)O[C@@H]1Cc1cc(C2(C)CC2)no1 [Ex 1.215] | 610 | 100 |

Reference: US12319672B2, “Alpha-D-galactopyranoside derivatives” (Idorsia Pharmaceuticals Ltd, priority 2019, dated 2025)
